Measured values: patent US12679832B2, “Compounds and their uses as CD38 inhibitors” (Nanjing Immunophage Biotech Co., Ltd., priority 2021, dated 2026)
pIC50: −log10 of the molar value.

Molecular target: T1, hCD38 Enzyme (Homo sapiens, UniProt P28907)
T1 construct: purchased Sino Biological Inc 10818-H08H
T1 sequence (P28907 43-300 limits assumed): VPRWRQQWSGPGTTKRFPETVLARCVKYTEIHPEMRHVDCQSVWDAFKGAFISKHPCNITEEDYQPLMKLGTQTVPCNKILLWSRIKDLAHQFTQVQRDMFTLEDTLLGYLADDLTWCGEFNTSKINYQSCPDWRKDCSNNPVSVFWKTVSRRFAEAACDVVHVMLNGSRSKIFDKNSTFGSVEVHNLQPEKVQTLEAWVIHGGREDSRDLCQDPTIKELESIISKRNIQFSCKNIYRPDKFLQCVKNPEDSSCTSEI
Assay: CD38 hydrolase enzymatic assay
Type: biochemical
Details: rhCD38, ε-NAD substrate, 25° C., point reading time 20 mins; read-out: hCD38 Enzyme inhibition IC50
Description: Also, a blank sample was prepared with 50 μl of sucrose buffer and no test compounds.
The dynamic reading was performed at 25° C. with excitation light of 300 nm and emission light of 410 nm on the enzyme marker by contacting the above-prepared rhCD38 enzyme working fluid and the above-prepared solutions of the test compounds disclosed herein or the solution of the control. The readings were recorded for a total of 1 hour, and the data were analyzed with the point reading time of 20 mins.
Fluorescence was recorded by a microplate reader. Individual excel files containing fluorescence data were exported and the results were plotted against various drug concentrations and analyzed in GraphPad Prism 7.0 for concentration curve generation.

| SMILES | pIC50 |
| --- | --- |
| CO[C@H]1CC[C@H](NC(=O)c2cc(C(F)(F)F)cc(-n3ccnc3)n2)CC1 [compound 53, 6-(1H-imidazol-1-yl)-N-((1r,4r)-4-methoxycyclohexyl)-4-(trifluoromethyl) picolinamide] | 7.44 |
| CO[C@H]1CC[C@H](NC(=O)c2cc(-n3ccnn3)cc3cc[nH]c23)CC1 [compound 54, N-((1r,4r)-4-methoxycyclohexyl)-5-(1H-1,2,3-triazol-1-yl)-1H-indole-7-carboxamide] | 5.16 |
| CO[C@H]1CC[C@H](NC(=O)c2cc(-n3nccn3)cc3cc[nH]c23)CC1 [compound 55, N-((1r,4r)-4-methoxycyclohexyl)-5-(2H-1,2,3-triazol-2-yl)-1H-indole-7-carboxamide] | < 5.00 |
| CO[C@H]1CC[C@H](NC(=O)c2cc(-n3ccnc3)cnc2N)CC1 [compound 59, 2-amino-5-(1H-imidazol-1-yl)-N-((1r,4r)-4-methoxycyclohexyl) nicotinamide] | < 5.00 |
| CO[C@H]1CC[C@H](NC(=O)c2nc(-n3ccnc3)ccc2N)CC1 [compound 60, 3-amino-6-(1H-imidazol-1-yl)-N-((1r,4r)-4-methoxycyclohexyl) picolinamide] | 7.77 |
| Nc1ccc(-n2ccnc2)nc1C(=O)NC1CCCCC1 [compound 61, 3-amino-N-cyclohexyl-6-(1H-imidazol-1-yl)picolinamide] | 7.82 |
| O=C(Nc1cccnc1)c1ccnc(-n2ccnc2)n1 [compound 66, 2-(1H-imidazol-1-yl)-N-(pyridin-3-yl)pyrimidine-4-carboxamide] | 8.77 |
| CO[C@H]1CC[C@H](NC(=O)c2nc(-n3ccnc3)cnc2O)CC1 [compound 67, 3-hydroxy-6-(1H-imidazol-1-yl)-N-((1r,4r)-4-methoxycyclohexyl)pyrazine-2-carboxamide] | < 5.00 |
| CO[C@H]1CC[C@H](NC(=O)c2cc(-n3ccnc3)ncc2N)CC1 [compound 69, 5-amino-2-(1H-imidazol-1-yl)-N-((1r,4r)-4-methoxycyclohexyl) isonicotinamide] | 6.95 |
| CO[C@H]1CC[C@H](NC(=O)c2nc(-n3ccnc3)ccc2O)CC1 [compound 71, 3-hydroxy-6-(1H-imidazol-1-yl)-N-((1r,4r)-4-methoxycyclohexyl) picolinamide] | 7.14 |
| O=C(NC1CCCCC1)c1ccnc(-n2ccnc2)n1 [compound 72, N-cyclohexyl-2-(1H-imidazol-1-yl)pyrimidine-4-carboxamide] | 7.80 |
| COc1ccc(C(=O)N[C@H]2CC[C@H](OC)CC2)nc1-n1ccnc1 [compound 74, 6-(1H-imidazol-1-yl)-5-methoxy-N-((1r,4r)-4-methoxycyclohexyl) picolinamide] | 5.39 |
| CO[C@H]1CC[C@H](NC(=O)c2nc(-n3ccnc3)ccc2Cl)CC1 [compound 75, 3-chloro-6-(1H-imidazol-1-yl)-N-((1r,4r)-4-methoxycyclohexyl) picolinamide] | 6.41 |
| CO[C@H]1CC[C@H](NC(=O)c2ccc(C)c(-n3ccnc3)n2)CC1 [compound 76, 6-(1H-imidazol-1-yl)-N-((1r,4r)-4-methoxycyclohexyl)-5-methylpicolinamide] | < 5.00 |
| CO[C@H]1CC[C@H](NC(=O)c2ccc(Cl)c(-n3ccnc3)n2)CC1 [compound 77, 5-chloro-6-(1H-imidazol-1-yl)-N-((1r,4r)-4-methoxycyclohexyl) picolinamide] | 5.61 |
| Cc1cn(-c2cncc(C(=O)NC3CCCCC3)n2)cn1 [compound 78, N-cyclohexyl-6-(4-methyl-1H-imidazol-1-yl)pyrazine-2-carboxamide] | < 5.00 |
| Cc1cncn1-c1cncc(C(=O)NC2CCCCC2)n1 [compound 79, N-cyclohexyl-6-(5-methyl-1H-imidazol-1-yl)pyrazine-2-carboxamide] | 5.66 |

| SMILES | pIC50 |
| --- | --- |
| Cc1nccn1-c1cncc(C(=O)NC2CCCCC2)n1 [compound 80, N-cyclohexyl-6-(2-methyl-1H-imidazol-1-yl)pyrazine-2-carboxamide] | < 5.00 |
| O=C(Nc1ccccc1)c1cccc(-n2ccnc2)n1 [compound 81, 6-(1H-imidazol-1-yl)-N-phenylpicolinamide] | 7.82 |
| O=C(Nc1ccccc1)c1ccnc(-n2ccnc2)n1 [compound 82, 2-(1H-imidazol-1-yl)-N-phenylpyrimidine-4-carboxamide] | 8.52 |
| Cc1ccccc1NC(=O)c1ccnc(-n2ccnc2)n1 [compound 83, 2-(1H-imidazol-1-yl)-N-(o-tolyl)pyrimidine-4-carboxamide] | 6.88 |
| O=C(Nc1ccccc1F)c1ccnc(-n2ccnc2)n1 [compound 84, N-(2-fluorophenyl)-2-(1H-imidazol-1-yl)pyrimidine-4-carboxamide] | 7.89 |
| O=C(Nc1ccccc1Cl)c1ccnc(-n2ccnc2)n1 [compound 85, N-(2-chlorophenyl)-2-(1H-imidazol-1-yl)pyrimidine-4-carboxamide] | 7.54 |
| CO[C@H]1CC[C@H](NC(=O)c2cc(C)nc(-n3ccnc3)n2)CC1 [compound 99, 2-(1H-imidazol-1-yl)-N-((1r,4r)-4-methoxycyclohexyl)-6-methylpyrimidine-4-carboxamide] | 8.05 |
| CO[C@H]1CC[C@H](NC(=O)c2ccnc(-n3cccn3)n2)CC1 [compound 100, N-((1r,4r)-4-methoxycyclohexyl)-2-(1H-pyrazol-1-yl)pyrimidine-4-carboxamide] | 5.46 |
| O=C(Nc1cccc(F)c1)c1cc(N2CCCCC2)nc(-n2ccnc2)n1 [compound 101, N-(3-fluorophenyl)-2-(1H-imidazol-1-yl)-6-(piperidin-1-yl)pyrimidine-4-carboxamide] | 7.77 |
| O=C(Nc1cccc(F)c1)c1ccnc(-n2cccn2)n1 [compound 102, N-(3-fluorophenyl)-2-(1H-pyrazol-1-yl)pyrimidine-4-carboxamide] | < 5.00 |
| CO[C@H]1CC[C@H](NC(=O)c2cc(C(F)(F)F)nc(-n3ccnc3)n2)CC1 [compound 103, 2-(1H-imidazol-1-yl)-N-((1r,4r)-4-methoxycyclohexyl)-6-(trifluoromethyl) pyrimidine-4-carboxamide] | 7.55 |
| CO[C@H]1CC[C@H](NC(=O)c2cc(OC3CCC3)nc(-n3ccnc3)n2)CC1 [compound 104, 6-cyclobutoxy-2-(1H-imidazol-1-yl)-N-((1r,4r)-4-methoxycyclohexyl)pyrimidine-4-carboxamide] | 7.59 |
| COc1cc(C(=O)N[C@H]2CC[C@H](OC)CC2)nc(-n2ccnc2)n1 [compound 105, 2-(1H-imidazol-1-yl)-6-methoxy-N-((1r,4r)-4-methoxycyclohexyl) pyrimidine-4-carboxamide] | 7.70 |
| CO[C@H]1CC[C@H](NC(=O)c2cc(C#N)nc(-n3ccnc3)n2)CC1 [compound 106, 6-cyano-2-(1H-imidazol-1-yl)-N-((1r,4r)-4-methoxycyclohexyl)pyrimidine-4-carboxamide] | 7.74 |
| O=C(Nc1ccccn1)c1ccnc(-n2ccnc2)n1 [compound 112, 2-(1H-imidazol-1-yl)-N-(pyridin-2-yl)pyrimidine-4-carboxamide] | 7.70 |
| O=C(Nc1cccc(F)c1)c1cc(N2CCOCC2)nc(-n2ccnc2)n1 [compound 114, N-(3-fluorophenyl)-2-(1H-imidazol-1-yl)-6-morpholinopyrimidine-4-carboxamide] | 8.30 |
